In patent US20260242391A1 (priority 2023, published 2026):

How the values were obtained:
in vitro = conditions: human
HL-60 = HL-60 differentiation potency; format: cell-based; conditions: Homo sapiens

| Compound | EC50 (HL-60) [µM] | IC50 (in vitro) [µM] | IC50 (in vitro; HL-60 cells) [µM] |
| --- | --- | --- | --- |
| C[C@H]1[C@@H](O[C@H]2CC[C@@H](C(=O)N3CC(C(=O)O)C3)CC2)O[C@@H]2O[C@@]3(C)CC[C@H]4[C@H](C)CC[C@@H]1[C@@]24OO3 [Compound 259, 1-((1R,4s)-4-(((3R,5aS,6R,8aS, 9R,10S,12R, 12aR)-3,6,9-trimethyldeca-hydro-12H-3,12-epoxy[1,2]dioxepino[4,3-i]isochromen-10-yl)oxy)cyclo-hexane-1-carbonyl) azetidine-3-carboxylic acid] | 0.172 | – | 10.8 |
| C[C@H]1[C@@H](OCc2ccc(C(=O)O)c(OC(F)(F)F)c2)O[C@@H]2O[C@@]3(C)CC[C@H]4[C@H](C)CC[C@@H]1[C@@]24OO3 [Compound 298, 2-(trifluoro-methoxy)-4-((((3R,5aS,6R,8aS, 9R,10S,12R, 12aR)-3,6,9-trimethyldeca-hydro-12H-3,12-epoxy[1,2]dioxepino[4,3-i]isochromen-10-yl)oxy)methyl) benzoic acid] | 0.0531 | > 20 | – |
| C[C@H]1[C@@H](OCc2ccc(C(=O)N[C@@H]3CCC[C@@H](C(=O)O)C3)cc2)O[C@@H]2O[C@@]3(C)CC[C@H]4[C@H](C)CC[C@@H]1[C@@]24OO3 [Compound 290, (1R,3R)-3-(4-((((3R,5aS,6R,8aS, 9R,10S,12R, 12aR)-3,6,9-trimethyldeca-hydro-12H-3,12-epoxy[1,2]dioxepino[4,3-i]isochromen-10-yl)oxy)methyl)benzamido) cyclohexane-1-carboxylic acid] | 0.0834 | 11.3 | – |
| CC(C)C(C(=O)O)c1ccc(O[C@H]2O[C@@H]3O[C@@]4(C)CC[C@H]5[C@H](C)CC[C@@H]([C@H]2C)[C@@]35OO4)c(F)c1 (stereo partly drawn) [Compound 266, 2-(3-fluoro-4-(((3R,5aS,6R,8aS, 9R,10S,12R, 12aR)-3,6,9-trimethyldeca-hydro-12H-3,12-epoxy[1,2]dioxepino[4,3-i]isochromen-10-yl)oxy)phenyl)-3-methylbutanoic acid] | 0.0103 | 0.06 | – |
| C[C@H]1[C@@H](Oc2ccc(C(=O)N3C[C@H]4[C@@H]([C@H]3C(=O)O)C4(C)C)cc2)O[C@@H]2O[C@@]3(C)CC[C@H]4[C@H](C)CC[C@@H]1[C@@]24OO3 [Compound 190, (1R,2S,5S)-6,6-dimethyl-3-(4-(((3R,5aS,6R,8aS, 9R,10S,12R, 12aR)-3,6,9-trimethyldeca-hydro-12H-3,12-epoxy[1,2]dioxepino[4,3-i]isochromen-10-yl)oxy)benzoyl)-3-azabicyclo[3.1.0] hexane-2-carboxylic acid] | 0.0803 | 0.33 | – |
| C[C@H]1[C@@H](Oc2ccc(C3CC3C(=O)O)cc2)O[C@@H]2O[C@@]3(C)CC[C@H]4[C@H](C)CC[C@@H]1[C@@]24OO3 (stereo partly drawn) [Compound 192, 2-(4-(((3R,5aS,6R,8aS, 9R,10S,12R, 12aR)-3,6,9-trimethyldeca-hydro-12H-3,12-epoxy[1,2]dioxepino[4,3-i]isochromen-10-yl)oxy)phenyl) cyclopropane-1-carboxylic acid] | 0.0672 | 3.5 | – |
| C[C@H]1[C@@H](Oc2ccc(C(=O)N3CC[C@@H](C(=O)O)C3)cc2Cl)O[C@@H]2O[C@@]3(C)CC[C@H]4[C@H](C)CC[C@@H]1[C@@]24OO3 [Compound 247, (R)-1-(3-chloro-4-(((3R,5aS,6R,8aS, 9R,10S,12R, 12aR)-3,6,9-trimethyldeca-hydro-12H-3,12-epoxy[1,2]dioxepino[4,3-i]isochromen-10-yl)oxy)benzoyl) pyrrolidine-3-carboxylic acid] | 0.0561 | 1.42 | – |
| C[C@H]1[C@@H](O[C@H]2CC[C@@H](C(=O)N[C@H](C(=O)O)C(C)(C)O)CC2)O[C@@H]2O[C@@]3(C)CC[C@H]4[C@H](C)CC[C@@H]1[C@@]24OO3 [Compound 249, (S)-3-hydroxy-3-methyl-2-((1R,4R)-4-(((3R,5aS,6R,8aS, 9R,10S,12R, 12aR)-3,6,9-trimethyldeca-hydro-12H-3,12-epoxy[1,2]dioxepino[4,3-i]isochromen-10-yl)oxy)cyclo-hexane-1-carboxamido) butanoic acid] | 20 | > 20 | – |
| C[C@H]1[C@@H](Oc2ccc(CC(=O)N[C@H]3C[C@@H](C(=O)O)C3)cc2)O[C@@H]2O[C@@]3(C)CC[C@H]4[C@H](C)CC[C@@H]1[C@@]24OO3 [Compound 292, (1R,3s)-3-(2-(4-(((3R,5aS,6R,8aS, 9R,10S,12R, 12aR)-3,6,9-trimethyldeca-hydro-12H-3,12-epoxy[1,2]dioxepino[4,3-i]isochromen-10-yl)oxy)phenyl)acetamido) cyclobutane-1-carboxylic acid] | 0.0429 | – | > 20 |
| C[C@H]1[C@@H](OC[C@H]2CCC(C(=O)O)CO2)O[C@@H]2O[C@@]3(C)CC[C@H]4[C@H](C)CC[C@@H]1[C@@]24OO3 (stereo partly drawn) [Compound 212, (6R)-6-((((3R,5aS,6R,8aS, 9R,10S,12R, 12aR)-3,6,9-trimethyldeca-hydro-12H-3,12-epoxy[1,2]dioxepino[4,3-i]isochromen-10-yl)oxy)methyl) tetrahydro-2H-pyran-3-carboxylic acid] | 20.5 | > 20 | – |
| C[C@H]1[C@@H](OCc2ccc(C(=O)NC3CC4(C3)CC(C(=O)O)C4)cc2)O[C@@H]2O[C@@]3(C)CC[C@H]4[C@H](C)CC[C@@H]1[C@@]24OO3 (stereo partly drawn) [Compound 291, 6-(4-((((3R,5aS,6R,8aS, 9R,10S,12R, 12aR)-3,6,9-trimethyldeca-hydro-12H-3,12-epoxy[1,2]dioxepino[4,3-i]isochromen-10-yl)oxy)methyl)benzamido)spiro [3.3]heptane-2-carboxylic acid] | 0.0478 | 13.4 | – |

Continued by falling EC50 (HL-60), values first:

| EC50 (HL-60) [µM] | IC50 (in vitro) [µM] | Compound | IC50 (in vitro; HL-60 cells) [µM] |
| --- | --- | --- | --- |
| 8.04 | > 20 | C[C@H]1[C@@H](O[C@H]2CC[C@@H](OCC(=O)O)CC2)O[C@@H]2O[C@@]3(C)CC[C@H]4[C@H](C)CC[C@@H]1[C@@]24OO3 [Compound 224, 2-(((1R,4s)-4-(((3R,5aS,6R,8aS, 9R,10S,12R, 12aR)-3,6,9-trimethyldeca-hydro-12H-3,12-epoxy[1,2]dioxepino[4,3-i]isochromen-10-yl)oxy)cyclohexyl)oxy)acetic acid] | – |
| 7.03 | > 20 | CO[C@]1(CO[C@H]2O[C@@H]3O[C@@]4(C)CC[C@H]5[C@H](C)CC[C@@H]([C@H]2C)[C@@]35OO4)CC[C@H](C(=O)O)CC1 [Compound 193, (1R,4s)-4-methoxy-4-((((3R,5aS,6R,8aS, 9R,10S,12R, 12aR)-3,6,9-trimethyldeca-hydro-12H-3,12-epoxy[1,2]dioxepino[4,3-i]isochromen-10-yl)oxy)methyl) cyclohexane-1-carboxylic acid] | – |
| 5.06 | > 20 | C[C@H]1[C@@H](OCC(=O)N[C@H](C(=O)O)C(C)(C)C)O[C@@H]2O[C@@]3(C)CC[C@H]4[C@H](C)CC[C@@H]1[C@@]24OO3 [Compound 188, (S)-3,3-dimethyl-2-(2-(((3R,5aS,6R, 8aS,9R,10S,12R, 12aR)-3,6,9-trimethyldeca-hydro-12H-3,12-epoxy[1,2]dioxepino[4,3-i]isochromen-10-yl)oxy)acetamido) butanoic acid] | – |
| 2.91 | > 20 | C[C@H]1[C@@H](OCc2ccc(N3C(=O)N(CC(=O)O)C(C)(C)C3=O)cc2)O[C@@H]2O[C@@]3(C)CC[C@H]4[C@H](C)CC[C@@H]1[C@@]24OO3 [Compound 296, 2-(5,5-dimethyl-2,4-dioxo-3-(4-((((3R,5aS,6R,8aS, 9R,10S,12R, 12aR)-3,6,9-trimethyldeca-hydro-12H-3,12-epoxy[1,2]dioxepino[4,3-i]isochromen-10-yl)oxy)methyl)phenyl)imidazolidin-1-yl)acetic acid] | – |
| 1.34 | > 20 | C[C@H]1[C@@H](Oc2ccc(Cn3cc(C(=O)O)nn3)cc2)O[C@@H]2O[C@@]3(C)CC[C@H]4[C@H](C)CC[C@@H]1[C@@]24OO3 [Compound 245, 1-(4-(((3R,5aS,6R,8aS, 9R,10S,12R, 12aR)-3,6,9-trimethyldeca-hydro-12H-3,12-epoxy[1,2]dioxepino[4,3-i]isochromen-10-yl)oxy)benzyl)-1H-1,2,3-triazole-4-carboxylic acid] | – |
| 0.15 | 0.68 | C[C@H]1[C@@H](Oc2ccc(C(=O)N3[C@H](C(=O)O)C[C@@H]4CCC[C@@H]43)cc2)O[C@@H]2O[C@@]3(C)CC[C@H]4[C@H](C)CC[C@@H]1[C@@]24OO3 [Compound 207, (2S,3aS,6aS)-1-(4-(((3R,5aS,6R,8aS, 9R,10S,12R, 12aR)-3,6,9-trimethyldeca-hydro-12H-3,12-epoxy[1,2]dioxepino[4,3-i]isochromen-10-yl)oxy)benzoyl) octahydrocyclo penta[b]pyrrole-2-carboxylic acid] | – |
| 0.0635 | > 20 | C[C@H]1[C@@H](Oc2ccc(CC(=O)N[C@H](C(=O)O)C3CC3)cc2)O[C@@H]2O[C@@]3(C)CC[C@H]4[C@H](C)CC[C@@H]1[C@@]24OO3 [Compound 301, (S)-2-cyclopropyl-2-(2-(4-(((3R,5aS,6R,8aS, 9R,10S,12R, 12aR)-3,6,9-trimethyldeca-hydro-12H-3,12-epoxy[1,2]dioxepino[4,3-i]isochromen-10-yl)oxy)phenyl)acetamido) acetic acid] | – |
| 0.0537 | 0.22 | C[C@H]1[C@@H](Oc2ccc3cc(C(=O)O)ccc3c2)O[C@@H]2O[C@@]3(C)CC[C@H]4[C@H](C)CC[C@@H]1[C@@]24OO3 [Compound 214, 6-(((3R,5aS,6R,8aS, 9R,10S,12R, 12aR)-3,6,9-trimethyldeca-hydro-12H-3,12-epoxy[1,2]dioxepino[4,3-i]isochromen-10-yl)oxy)-2-naphthoic acid] | – |
| 0.0219 | 16.2 | C[C@H]1[C@@H](Oc2ccc(CC(=O)N[C@H]3CC[C@@H](C(=O)O)C3)cc2)O[C@@H]2O[C@@]3(C)CC[C@H]4[C@H](C)CC[C@@H]1[C@@]24OO3 [Compound 239, (1R,3S)-3-(2-(4-(((3R,5aS,6R,8aS, 9R,10S,12R, 12aR)-3,6,9-trimethyldeca-hydro-12H-3,12-epoxy[1,2]dioxepino[4,3-i]isochromen-10-yl)oxy)phenyl)acetamido)cyclo-pentane-1-carboxylic acid] | – |
| 0.0103 | 0.03 | C[C@@H]1CC[C@H]2[C@@H](C)[C@](OCc3ccc(C(=O)O)cc3Cl)(C(F)(F)F)O[C@@H]3O[C@@]4(C)CC[C@@H]1[C@]32OO4 [Compound 196] | – |
